Laboratory results reported in ChEMBL document CHEMBL4665709, “Rational Avoidance of Protease Cleavage Sites and Symmetrical End-Tagging Significantly Enhances the Stability and Therapeutic Potential of Antimicrobial Peptides” (J Med Chem, 2020).
Converted amounts (≈) assume the structure as drawn. The source made the active and inactive calls. The rule behind the calls is not given here.

Columns and labels:
HEK-293T = assay: Cytotoxicity against HEK-293T cells assessed as reduction in cell viability at lower concentration by MTT assay; format: cell-based; details: human
[1] = Stability of compound assessed as chymotrypsin (unknown origin)-mediated drug degradation after 1 hr by RP-HPLC analysis; format: ADME; details: human
Trypsin [2] = target: T1, Trypsin (Homo sapiens, UniProt P07477+P07478+P35030); assay: Stability of compound assessed as trypsin (unknown origin)-mediated drug degradation after 1 hr by RP-HPLC analysis; format: ADME, protein assay
[3] = Therapeutic index, ratio of MHC for human RBC to geometric mean of peptide MIC for Streptococcus agalactiae H92; format: toxicity; details: human red blood cells (RBC), read-out: TI
RAW264.7 = assay: Cytotoxicity against mouse RAW264.7 cells assessed as reduction in cell viability lower concentration by MTT assay; format: cell-based
Cell membrane = assay: Induction of outer membrane permeabilization in Escherichia coli ATCC 25922 after 30 mins by NPN-dye based assay
[4] = Hemolytic activity in human RBC assessed as hemolysis at 1 uM relative to control; format: ADME, cell-based, Erythrocyte; details: human red blood cells (RBC), read-out: Activity
[5] = Stability of compound assessed as pepsin (unknown origin)-mediated drug degradation after 1 hr by SDS-PAGE analysis; format: ADME; details: human
Escherichia coli [6] = assay: Antibacterial activity against Escherichia coli ATCC 25922 measured after 18 to 24 hrs in presence of proteinase K by CLSI-based broth microdilution method; format: functional, organism-based; details: time hrs 18-24
[7] = Stability of compound assessed as pepsin (unknown origin)-mediated drug degradation after 1 hr by RP-HPLC analysis; format: ADME; details: human
Staphylococcus aureus [8] = assay: Antibacterial activity against Staphylococcus aureus 29213 with 0.0625-2 mg/mL proteinase K for 1 hr followed by test compound addition measured after 4 to 8 hrs by CLSI-based broth microdilution method; format: functional, organism-based; details: time hrs 4-8
[9] = Therapeutic index, ratio of MHC for human RBC to geometric mean of peptide MIC for Staphylococcus aureus 11011; format: toxicity; details: human red blood cells (RBC), read-out: TI
[10] = Antibacterial activity against Salmonella pullorum 7913 after 18 to 24 hrs by CLSI-based broth microdilution method; format: functional, Salmonella enterica subsp. enterica serovar Pullorum; details: Salmonella enterica, time hrs 18-24
Enterococcus faecalis = assay: Antibacterial activity against Enterococcus faecalis ATCC 29212 after 18 to 24 hrs by CLSI-based broth microdilution method; format: functional; details: time hrs 18-24
[11] = Therapeutic index, ratio of MHC for human RBC to geometric mean of peptide MIC for Salmonella typhimurium 14028; format: toxicity; details: human red blood cells (RBC), read-out: TI
Erythrocyte = assay: Hemolytic activity in human RBC assessed as hemolysis; format: ADME, cell-based
[12] = Therapeutic index, ratio of MHC for human RBC to geometric mean of peptide MIC for Enterococcus faecalis ATCC 29212; format: toxicity; details: human red blood cells (RBC), read-out: TI
[13] = Therapeutic index, ratio of MHC for human RBC to geometric mean of peptide MIC for Salmonella pullorum 7913; format: toxicity; details: human red blood cells (RBC), read-out: TI
Staphylococcus aureus [14] = assay: Antibacterial activity against Staphylococcus aureus 29213 with 0.0625-2 mg/mL chymotrypsin for 1 hr followed by test compound addition measured after 4 to 8 hrs by CLSI-based broth microdilution method; format: functional, organism-based; details: time hrs 4-8
[15] = Therapeutic index, ratio of MHC for human RBC to geometric mean of peptide MIC for methicillin-resistant Staphylococcus aureus 43300; format: toxicity; details: human red blood cells (RBC), read-out: TI
Streptococcus agalactiae = assay: Antibacterial activity against Streptococcus agalactiae H92 after 18 to 24 hrs by CLSI-based broth microdilution method; format: functional; details: time hrs 18-24
[16] = Stability of compound assessed as chymotrypsin (unknown origin)-mediated drug degradation after 1 hr by SDS-PAGE analysis; format: ADME; details: human
[17] = Therapeutic index, ratio of MHC for human RBC to geometric mean of peptide MIC for Escherichia coli UB1005; format: toxicity; details: human red blood cells (RBC), read-out: TI
Staphylococcus aureus [18] = assay: Antibacterial activity against Staphylococcus aureus 29213 with 0.0625-2 mg/mL trypsin for 1 hr followed by test compound addition measured after 4 to 8 hrs by CLSI-based broth microdilution method; format: functional, organism-based; details: time hrs 4-8
[19] = Stability of compound assessed as proteinase K (unknown origin)-mediated drug degradation after 1 hr by RP-HPLC analysis; format: ADME; details: human
Trypsin [20] = target: T1, Trypsin; assay: Stability of compound assessed as trypsin (unknown origin)-mediated drug degradation after 1 hr by SDS-PAGE analysis; format: ADME, protein assay
[21] = Therapeutic index, ratio of MHC for human RBC to geometric mean of peptide MIC for Staphylococcus aureus ATCC 29213; format: toxicity; details: human red blood cells (RBC), read-out: TI
[22] = Therapeutic index, ratio of MHC for human RBC to geometric mean of peptide MIC for Escherichia coli ATCC 25922; format: toxicity; details: human red blood cells (RBC), read-out: TI
Salmonella enterica = assay: Antibacterial activity against Salmonella choleraesuis 503 after 18 to 24 hrs by CLSI-based broth microdilution method; format: functional; details: time hrs 18-24
[23] = Therapeutic index, ratio of MHC for human RBC to geometric mean of peptide MIC for Salmonella choleraesuis 503; format: toxicity; details: human red blood cells (RBC), read-out: TI
[24] = Hemolytic activity in human RBC assessed as hemolysis at 1 to 128 uM relative to control; format: ADME, cell-based, Erythrocyte; details: human red blood cells (RBC), dose 1-128 µM, read-out: Activity
Escherichia coli [25] = assay: Antibacterial activity against Escherichia coli ATCC 25922 measured after 18 to 24 hrs in presence of pepsin by CLSI-based broth microdilution method; format: functional, organism-based; details: time hrs 18-24
Staphylococcus aureus [26] = assay: Antibacterial activity against Staphylococcus aureus 29213 with 0.0625-2 mg/mL pepsin for 1 hr followed by test compound addition measured after 4 to 8 hrs by CLSI-based broth microdilution method; format: functional, organism-based; details: time hrs 4-8
[27] = Therapeutic index, ratio of MHC for human RBC to geometric mean of peptide MIC for Salmonella typhimurium 7731; format: toxicity; details: human red blood cells (RBC), read-out: TI
[28] = Therapeutic index, ratio of MHC for human RBC to geometric mean of peptide MIC for Staphylococcus epidermidis ATCC 12228; format: toxicity; details: human red blood cells (RBC), read-out: TI
Escherichia coli [29] = assay: Antibacterial activity against Escherichia coli ATCC 25922 measured after 18 to 24 hrs in presence of chymotrypsin by CLSI-based broth microdilution method; format: functional, organism-based; details: time hrs 18-24
[30] = Stability of compound assessed as proteinase K (unknown origin)-mediated drug degradation after 1 hr by SDS-PAGE analysis; format: ADME; details: human
[31] = Stability of compound at 100 degreeC after 30 to 90 mins; format: physicochemical; details: time 30-90 min
Escherichia coli [32] = assay: Antibacterial activity against Escherichia coli ATCC 25922 measured after 18 to 24 hrs in presence of trypsin by CLSI-based broth microdilution method; format: functional, organism-based; details: time hrs 18-24

In the case of CC[C@H](C)[C@H](NC(=O)CN)C(=O)NCC(=O)N[C@@H](C)C(=O)N[C@H](C(=O)N[C@@H](CC(C)C)C(=O)N[C@@H](CCCCN)C(=O)N[C@H](C(=O)N[C@@H](CC(C)C)C(=O)N[C@H](C(=O)N[C@H](C(=O)NCC(=O)N[C@@H](CC(C)C)C(=O)N1CCC[C@H]1C(=O)N[C@@H](C)C(=O)N[C@@H](CC(C)C)C(=O)N[C@H](C(=O)N[C@@H](CO)C(=O)N[C@@H](Cc1c[nH]c2ccccc12)C(=O)N[C@H](C(=O)N[C@@H](CCCCN)C(=O)N[C@@H](CCCNC(=N)N)C(=O)N[C@@H](CCCCN)C(=O)N[C@@H](CCCNC(=N)N)C(=O)N[C@@H](CCC(N)=O)C(=O)N[C@@H](CCC(N)=O)C(N)=O)[C@@H](C)CC)[C@@H](C)CC)[C@@H](C)O)[C@@H](C)O)C(C)C)C(C)C [MELITTIN], the Activity (HEK-293T) is reported as “Toxic”, the Stabilty [1] is reported as “Unstable” and the Stabilty (Trypsin [2]) is reported as “Unstable”. The selectivity ratio [3] was 0.56, the Activity (RAW264.7) was “Toxic” and the Activity (Cell membrane) was “Dose-dependent effect”. For the same compound, the hemolysis at 1 µM [4] was 10.1%, the Stabilty [5] was “Unstable” and the Activity (Escherichia coli [6]) was “inactive”. The Stabilty [7] was “Unstable”, the Activity (Staphylococcus aureus [8]) was “inactive” and the selectivity ratio [9] was 0.56. For the same compound, the MIC [10] was 4 µM (≈ 11.4 µg/mL), the MIC (Enterococcus faecalis) was 2 µM (≈ 5.69 µg/mL) and the selectivity ratio [11] was 0.4. For the same compound, the MHC (Erythrocyte) was 1 µM, the selectivity ratio [12] was 0.56 and the selectivity ratio [13] was 0.4. The Activity (Staphylococcus aureus [14]) was “inactive”, the selectivity ratio [15] was 0.56 and the MIC (Streptococcus agalactiae) was 1 µM (≈ 2.85 µg/mL). For the same compound, the Stabilty [16] was “Unstable”, the selectivity ratio [17] was 0.4 and the Activity (Staphylococcus aureus [18]) was “inactive”. The Stabilty [19] was “Unstable”, the Stabilty (Trypsin [20]) was “Unstable” and the selectivity ratio [21] was 0.56. For the same compound, the selectivity ratio [22] was 0.4, the MIC (Salmonella enterica) was 4 µM (≈ 11.4 µg/mL) and the selectivity ratio [23] was 0.4. The hemolysis at up to 128 µM [24] was less than 5%, the Activity (Escherichia coli [25]) was “inactive” and the Activity (Staphylococcus aureus [26]) was “inactive”. The selectivity ratio [27] was 0.4, the selectivity ratio [28] was 0.56 and the Activity (Escherichia coli [29]) was “inactive”. The Stabilty [30] was “Unstable”, the Stabilty [31] was “Stable” and the Activity (Escherichia coli [32]) was “inactive”.
